In patent US20240309038A1, “NOVEL GALACTOSIDE INHIBITOR OF GALECTINS” (GALECTO BIOTECH AB, priority 2020, published 2024):

These molecules were tested against Gal-3 (Homo sapiens, UniProt P17931) (assay: Fluorescence anisotropy assay, inhibition of galectin / fluorescein tagged saccharide probe interaction).
Assay type: binding
Method: The affinity of Example 1-59 for galectins were determined by a fluorescence anisotropy assay where the compound was used as an inhibitor of the interaction between galectin and a fluorescein tagged saccharide probe as described Sörme, P., Kahl-Knutsson, B., Huflejt, M., Nilsson, U. J., and Leffler H. (2004) Fluorescence polarization as an analytical tool to evaluate galectin-ligand interactions. Anal. Biochem. 334: 36-47, (Sarme et al., 2004)

Sequence of Gal-3 (P17931 whole entry, species assumed): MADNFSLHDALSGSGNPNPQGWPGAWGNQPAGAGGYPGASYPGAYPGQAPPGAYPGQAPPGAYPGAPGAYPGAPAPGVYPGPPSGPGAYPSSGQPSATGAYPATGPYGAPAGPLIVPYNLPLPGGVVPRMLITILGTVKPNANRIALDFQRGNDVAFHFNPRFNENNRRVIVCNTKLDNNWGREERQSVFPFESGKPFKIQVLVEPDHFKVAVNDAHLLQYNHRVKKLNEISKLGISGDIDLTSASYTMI

Structure (SMILES) | Kd [nM]
Cc1nc([C@@H]2OC(CO)[C@H](O)C(n3cc(-c4cc(F)c(Cl)c(F)c4)c(C(=O)O)n3)C2O)n(-c2cc(Cl)ccc2C(F)(F)F)n1 (stereo in doubt) [Example 30, 1-{5-{3-[3-Carboxy-4-(4-chloro-3,5-difluorophenyl)-1H-1,2-pyrazol-1-yl]-3-deoxy-β-D-galactopyranosyl}-3-methyl-1H-1,2,4-triazol-1-yl}-5-chloro-2-(trifluoromethyl)benzene] | 6
Cc1nc([C@@H]2OC(CO)[C@H](O)C(n3cc(-c4cc(F)c(Cl)c(F)c4)c(C#N)n3)C2O)n(-c2cc(Cl)ccc2C(F)(F)F)n1 (stereo in doubt) [Example 31, 1-{5-{3-[4-(4-Chloro-3,5-difluorophenyl)-3-cyano-1H-1,2-pyrazol-1-yl]-3-deoxy-β-D-galactopyranosyl}-3-methyl-1H-1,2,4-triazol-1-yl}-5-chloro-2-(trifluoromethyl)benzene] | 12
Cc1nc([C@@H]2OC(CO)[C@H](O)C(n3cc(-c4cc(F)c(Cl)c(F)c4)c(C(N)=O)n3)C2O)n(-c2cc(Cl)ccc2C(F)(F)F)n1 (stereo in doubt) [Example 32, 1-{5-{3-[3-Aminocarbonyl-4-(4-chloro-3,5-difluorophenyl)-1H-1,2-pyrazol-1-yl]-3-deoxy-β-D-galactopyranosyl}-3-methyl-1H-1,2,4-triazol-1-yl}-5-chloro-2-(trifluoromethyl)benzene] | 23
Cc1nc([C@@H]2OC(CO)[C@H](O)C(n3cc(-c4cc(F)c(F)c(F)c4)cn3)C2O)n(-c2ncc(Cl)s2)n1 (stereo in doubt) [Example 33, 5-Chloro-2-{5-{3-deoxy-3-[4-(3,4,5-trifluorophenyl)-1H-1,2-pyrazol-1-yl]-β-D-galactopyranosyl}-3-methyl-1H-1,2,4-triazol-1-yl}-thiazole] | 520
Cc1nc([C@@H]2OC(CO)[C@H](O)C(n3cc(-c4cc(F)c(F)c(F)c4)cn3)C2O)n(-c2ccc3ncsc3c2)n1 (stereo in doubt) [Example 34, 6-{5-{3-Deoxy-3-[4-(3,4,5-trifluorophenyl)-1H-1,2-pyrazol-1-yl]-β-D-galactopyranosyl}-3-methyl-1H-1,2,4-triazol-1-yl}benzothiazole] | 9
CCc1nc2ccc(-n3nc(C)nc3[C@@H]3OC(CO)[C@H](O)C(n4cc(-c5cc(F)c(F)c(F)c5)cn4)C3O)cc2s1 (stereo in doubt) [Example 35, 6-{5-{3-Deoxy-3-[4-(3,4,5-trifluorophenyl)-1H-1,2-pyrazol-1-yl]-β-D-galactopyranosyl}-3-methyl-1H-1,2,4-triazol-1-yl}-2-ethylbenzothiazole] | 12
Cc1nc([C@@H]2OC(CO)[C@H](O)C(n3cc(-c4cc(F)c(F)c(F)c4)cn3)C2O)n(-c2ccc3nc(C(F)(F)F)sc3c2)n1 (stereo in doubt) [Example 36, 6-{5-{3-Deoxy-3-[4-(3,4,5-trifluorophenyl)-1H-1,2-pyrazol-1-yl]-β-D-galactopyranosyl}-3-methyl-1H-1,2,4-triazol-1-yl}-2-(trifluoromethyl)benzothiazole] | 230
Cc1nc([C@@H]2OC(CO)[C@H](O)C(n3cc(-c4cc(F)c(F)c(F)c4)cn3)C2O)n(-c2cc3sc(C)nc3cc2F)n1 (stereo in doubt) [Example 37, 6-{5-{3-Deoxy-3-[4-(3,4,5-trifluorophenyl)-1H-1,2-pyrazol-1-yl]-β-D-galactopyranosyl}-3-methyl-1H-1,2,4-triazol-1-yl}-5-fluoro-2-methylbenzothiazole] | 16
Cc1nc([C@@H]2OC(CO)[C@H](O)C(n3cc(-c4cc(F)c(F)c(F)c4)cn3)C2O)n(-c2ccc3nc(C)sc3c2F)n1 (stereo in doubt) [Example 38, 6-{5-{3-Deoxy-3-[4-(3,4,5-trifluorophenyl)-1H-1,2-pyrazol-1-yl]-β-D-galactopyranosyl}-3-methyl-1H-1,2,4-triazol-1-yl}-7-fluoro-2-methylbenzothiazole] | 210
Cc1nc([C@@H]2OC(CO)[C@H](O)C(n3cc(-c4cc(F)c(F)c(F)c4)cn3)C2O)n(-c2cc(F)c3nc(C)sc3c2)n1 (stereo in doubt) [Example 39, 6-{5-{3-Deoxy-3-[4-(3,4,5-trifluorophenyl)-1H-1,2-pyrazol-1-yl]-β-D-galactopyranosyl}-3-methyl-1H-1,2,4-triazol-1-yl}-4-fluoro-2-methylbenzothiazole] | 10
Cc1nc([C@@H]2OC(CO)[C@H](O)C(n3cc(-c4cc(F)c(F)c(F)c4)cn3)C2O)n(-c2ccc3nc(C)sc3c2Cl)n1 (stereo in doubt) [Example 40, 7-Chloro-6-{5-{3-deoxy-3-[4-(3,4,5-trifluorophenyl)-1H-1,2-pyrazol-1-yl]-β-D-galactopyranosyl}-3-methyl-1H-1,2,4-triazol-1-yl}-2-methylbenzothiazole] | 260
Cc1nc([C@@H]2OC(CO)[C@H](O)C(n3cc(-c4cc(F)c(F)c(F)c4)cn3)C2O)n(-c2cc(Cl)c3nc(C)sc3c2)n1 (stereo in doubt) [Example 41, 4-Chloro-6-{5-{3-deoxy-3-[4-(3,4,5-trifluorophenyl)-1H-1,2-pyrazol-1-yl]-β-D-galactopyranosyl}-3-methyl-1H-1,2,4-triazol-1-yl}-2-methylbenzothiazole] | 10
Cc1nc([C@@H]2OC(CO)[C@H](O)C(n3cc(-c4cc(F)c(F)c(F)c4)cn3)C2O)n(-c2cc(C#N)c3nc(C)sc3c2)n1 (stereo in doubt) [Example 42, 4-Cyano-6-{5-{3-deoxy-3-[4-(3,4,5-trifluorophenyl)-1H-1,2-pyrazol-1-yl]-β-D-galactopyranosyl}-3-methyl-1H-1,2,4-triazol-1-yl}-2-methylbenzothiazole] | 12
Cc1nc([C@@H]2OC(CO)[C@H](O)C(n3cc(-c4cc(F)c(F)c(F)c4)cn3)C2O)n(-c2cc3sc(C)nc3cc2Br)n1 (stereo in doubt) [Example 43, 5-Bromo-6-{5-{3-deoxy-3-[4-(3,4,5-trifluorophenyl)-1H-1,2-pyrazol-1-yl]-β-D-galactopyranosyl}-3-methyl-1H-1,2,4-triazol-1-yl}-2-methylbenzothiazole] | 11
Cc1nc([C@@H]2OC(CO)[C@H](O)C(n3cc(-c4cc(F)c(F)c(F)c4)cn3)C2O)n(-c2cc3sc(C)nc3cc2C#N)n1 (stereo in doubt) [Example 44, 5-Cyano-6-{5-{3-deoxy-3-[4-(3,4,5-trifluorophenyl)-1H-1,2-pyrazol-1-yl]-β-D-galactopyranosyl}-3-methyl-1H-1,2,4-triazol-1-yl}-2-methylbenzothiazole] | 17
Cc1nc([C@@H]2OC(CO)[C@H](O)C(n3cc(-c4cc(F)c(F)c(F)c4)cn3)C2O)n(-c2cnc3nc(C)sc3c2)n1 (stereo in doubt) [Example 45, 6-{5-{3-Deoxy-3-[4-(3,4,5-trifluorophenyl)-1H-1,2-pyrazol-1-yl]-β-D-galactopyranosyl}-3-methyl-1H-1,2,4-triazol-1-yl}-2-methylthiazolo[4,5-b]pyridine] | 35
Cc1nc([C@@H]2OC(CO)[C@H](O)C(n3cc(-c4cc(F)c(F)c(F)c4)cn3)C2O)n(-c2cc(C#N)ccc2C(F)(F)F)n1 (stereo in doubt) [Example 46, 5-Cyano-1-{5-{3-deoxy-3-[4-(3,4,5-trifluorophenyl)-1H-1,2-pyrazol-1-yl]-β-D-galactopyranosyl}-3-methyl-1H-1,2,4-triazol-1-yl}-2-(trifluoromethyl)benzene] | 19
Cc1nc([C@@H]2OC(CO)[C@H](O)C(n3cc(-c4cc(F)c(F)c(F)c4)c(-c4ccccc4)n3)C2O)n(-c2cc(Cl)ccc2C(F)(F)F)n1 (stereo in doubt) [Example 47, 5-Chloro-1-{5-{3-deoxy-3-[4-(3,4,5-trifluorophenyl)-3-phenyl-1H-1,2-pyrazol-1-yl]-β-D-galactopyranosyl}-3-methyl-1H-1,2,4-triazol-1-yl}-2-(trifluoromethyl)benzene] | 80
Cc1nc([C@@H]2OC(CO)[C@H](O)C(n3cc(-c4cc(F)c(F)c(F)c4)c(-c4ccccc4F)n3)C2O)n(-c2cc(Cl)ccc2C(F)(F)F)n1 (stereo in doubt) [Example 48, 5-Chloro-1-{5-{3-deoxy-3-[4-(3,4,5-trifluorophenyl)-3-(2-fluorophenyl)-1H-1,2-pyrazol-1-yl]-β-D-galactopyranosyl}-3-methyl-1H-1,2,4-triazol-1-yl}-2-(trifluoromethyl)benzene] | 54
Cc1nc([C@@H]2OC(CO)[C@H](O)C(n3cc(-c4cc(F)c(F)c(F)c4)c(C)n3)C2O)n(-c2cc(Cl)ccc2C(F)(F)F)n1 (stereo in doubt) [Example 49, 5-Chloro-1-{5-{3-deoxy-3-[4-(3,4,5-trifluorophenyl)-3-methyl-1H-1,2-pyrazol-1-yl]-β-D-galactopyranosyl}-3-methyl-1H-1,2,4-triazol-1-yl}-2-(trifluoromethyl)benzene] | 13
Cc1nc([C@@H]2OC(CO)[C@H](O)C(n3cc(-c4cc(F)c(F)c(F)c4)c(Cc4ccccc4)n3)C2O)n(-c2cc(Cl)ccc2C(F)(F)F)n1 (stereo in doubt) [Example 50, 1-{5-{3-[3-Benzyl-4-(3,4,5-trifluorophenyl)-1H-1,2-pyrazol-1-yl]-3-deoxy-β-D-galactopyranosyl}-3-methyl-1H-1,2,4-triazol-1-yl}-5-chloro-2-(trifluoromethyl)benzene] | 36
Cc1nc([C@@H]2OC(CO)[C@H](O)C(n3cc(-c4cc(F)c(F)c(F)c4)c(C#N)n3)C2O)n(-c2cc(Cl)ccc2C(F)(F)F)n1 (stereo in doubt) [Example 51, 5-Chloro-1-{5-{3-[3-cyano-4-(3,4,5-trifluorophenyl)-1H-1,2-pyrazol-1-yl]-3-deoxy-β-D-galactopyranosyl}-3-methyl-1H-1,2,4-triazol-1-yl}-2-(trifluoromethyl)benzene] | 15
